{
  "source": "ChEMBL document CHEMBL1123439",
  "about": "“Folate analogues. 26. Syntheses and antifolate activity of 10-substituted derivatives of 5,8-dideazafolic acid and of the poly-gamma-glutamyl metabolites of N10-propargyl-5,8-dideazafolic acid (PDDF)” (J Med Chem, 1986)",
  "key": {"[1]": {"tested_on": "L1210", "assay": "Inhibition of thymidylate synthesis in L1210 intact cells at 10 uM", "format": "functional", "settings": "Mus musculus"}, "[2]": {"tested_on": "Enterococcus faecium", "assay": "Inhibitory activity against Streptococcus faecium ATCC 8043", "format": "functional, organism-based"}, "[3]": {"tested_on": "Lacticaseibacillus casei", "assay": "Inhibitory activity against Lactobacillus casei MTX-resistant", "format": "functional, organism-based"}, "[4]": {"tested_on": "Lacticaseibacillus casei", "assay": "Inhibitory activity against Lactobacillus casei ATCC 7469", "format": "functional, organism-based"}, "[5]": {"tested_on": "L1210", "assay": "Inhibition of thymidylate synthesis in permeabilised cells", "format": "functional, cell-based", "settings": "Mus musculus"}, "[6]": {"tested_on": "L1210", "assay": "Inhibition of thymidylate synthesis in L1210 cells at 100 uM", "format": "functional", "settings": "Mus musculus"}, "[7]": {"tested_on": "Enterococcus faecium", "assay": "Inhibitory activity against Streptococcus faecium MTX-resistant", "format": "functional, organism-based"}, "[8]": {"biological_target": "Dihydrofolate reductase (Lactobacillus casei, UniProt P00381)", "sequence (P00381 whole entry)": "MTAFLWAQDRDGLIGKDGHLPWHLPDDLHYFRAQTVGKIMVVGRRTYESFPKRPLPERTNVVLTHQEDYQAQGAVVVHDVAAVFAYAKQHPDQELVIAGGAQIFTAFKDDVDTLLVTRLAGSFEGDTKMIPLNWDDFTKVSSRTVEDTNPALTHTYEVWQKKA", "assay": "Inhibitory activity against dihydrofolate reductase of Lactobacillus casei", "set-up": "species or system Lacticaseibacillus casei"}, "[9]": {"biological_target": "T1, Thymidylate synthase (Lactobacillus casei, UniProt P00469)", "T1 sequence (P00469 whole entry)": "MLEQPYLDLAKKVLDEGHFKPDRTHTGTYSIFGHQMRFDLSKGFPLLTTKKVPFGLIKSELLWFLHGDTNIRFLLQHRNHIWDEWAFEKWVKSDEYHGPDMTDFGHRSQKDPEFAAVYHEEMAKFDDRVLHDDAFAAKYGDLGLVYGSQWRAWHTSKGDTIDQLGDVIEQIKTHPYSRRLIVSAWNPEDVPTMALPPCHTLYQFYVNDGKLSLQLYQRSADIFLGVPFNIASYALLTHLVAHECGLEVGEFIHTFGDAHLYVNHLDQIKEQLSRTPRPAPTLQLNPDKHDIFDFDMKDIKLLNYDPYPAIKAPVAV", "assay": "Inhibitory activity against thymidylate synthase of Lactobacillus casei", "set-up": "species or system Lacticaseibacillus casei"}},
  "data": [
    {"smiles": "CN(Cc1cnc2nc(N)nc(N)c2n1)c1ccc(C(=O)N[C@@H](CCC(=O)O)C(=O)O)cc1", "note": "[METHOTREXATE]", "values": [
      {"measurement": "inhibition at 10 µM", "setting": "[1]", "value": 95, "unit": "%"},
      {"measurement": "IC50", "setting": "[2]", "value": 0.0003, "unit": "µM"},
      {"measurement": "IC50", "setting": "[3]", "value": "> 1000", "unit": "µM"},
      {"measurement": "IC50", "setting": "[4]", "value": 0.03, "unit": "nM"},
      {"measurement": "IC50", "setting": "[5]", "value": 60, "unit": "µM"},
      {"measurement": "inhibition at 100 µM", "setting": "[6]", "value": 98, "unit": "%"},
      {"measurement": "IC50", "setting": "[7]", "value": 3.9, "unit": "µM"}
    ]},
    {"smiles": "Nc1nc(O)c2cc(CN(CC3CC3)c3ccc(C(=O)N[C@@H](CCC(=O)O)C(=O)O)cc3)ccc2n1", "values": [
      {"measurement": "IC50", "setting": "[2]", "value": 0.0026, "unit": "µM"},
      {"measurement": "IC50", "setting": "[3]", "value": "> 20", "unit": "µM"},
      {"measurement": "IC50", "setting": "[4]", "value": 8.1, "unit": "nM"},
      {"measurement": "IC50", "setting": "[5]", "value": 82, "unit": "µM"},
      {"measurement": "IC50", "setting": "[8]", "value": 2.3, "unit": "µM"},
      {"measurement": "IC50", "setting": "[9]", "value": 12, "unit": "µM"},
      {"measurement": "IC50", "setting": "[7]", "value": 1.5, "unit": "µM"}
    ]},
    {"smiles": "CC#CCN(Cc1ccc2nc(N)nc(O)c2c1)c1ccc(C(=O)N[C@@H](CCC(=O)O)C(=O)O)cc1", "values": [
      {"measurement": "IC50", "setting": "[2]", "value": 0.0067, "unit": "µM"},
      {"measurement": "IC50", "setting": "[3]", "value": "> 20", "unit": "µM"},
      {"measurement": "IC50", "setting": "[4]", "value": 86, "unit": "nM"},
      {"measurement": "IC50", "setting": "[5]", "value": 14, "unit": "µM"},
      {"measurement": "IC50", "setting": "[8]", "value": 250, "unit": "µM"},
      {"measurement": "IC50", "setting": "[9]", "value": 4.4, "unit": "µM"},
      {"measurement": "IC50", "setting": "[7]", "value": 1.6, "unit": "µM"}
    ]},
    {"smiles": "C#CN(Cc1ccc2nc(N)nc(O)c2c1)c1ccc(C(=O)NC(CCC(=O)NC(CCC(=O)NC(CCC(=O)O)C(=O)O)C(=O)O)C(=O)O)cc1", "note": "(stereo unspecified)", "values": [
      {"measurement": "inhibition at 10 µM", "setting": "[1]", "value": 0, "unit": "%"},
      {"measurement": "IC50", "setting": "[2]", "value": 0.034, "unit": "µM"},
      {"measurement": "IC50", "setting": "[3]", "value": 1.1, "unit": "µM"},
      {"measurement": "IC50", "setting": "[4]", "value": 0.08, "unit": "nM"},
      {"measurement": "IC50", "setting": "[5]", "value": 0.002, "unit": "µM"},
      {"measurement": "IC50", "setting": "[8]", "value": 5.3, "unit": "µM"},
      {"measurement": "IC50", "setting": "[9]", "value": 0.014, "unit": "µM"},
      {"measurement": "inhibition at 100 µM", "setting": "[6]", "value": 8, "unit": "%"},
      {"measurement": "IC50", "setting": "[7]", "value": "> 0.8", "unit": "µM"}
    ]},
    {"smiles": "C#CN(Cc1ccc2nc(N)nc(O)c2c1)c1ccc(C(=O)NC(CCC=O)C(=O)O)cc1", "note": "(stereo unspecified)", "values": [
      {"measurement": "inhibition at 10 µM", "setting": "[1]", "value": 55, "unit": "%"},
      {"measurement": "IC50", "setting": "[2]", "value": 0.00013, "unit": "µM"},
      {"measurement": "IC50", "setting": "[4]", "value": 0.4, "unit": "nM"},
      {"measurement": "IC50", "setting": "[5]", "value": 0.03, "unit": "µM"},
      {"measurement": "inhibition at 100 µM", "setting": "[6]", "value": 87, "unit": "%"},
      {"measurement": "IC50", "setting": "[7]", "value": 0.02, "unit": "µM"}
    ]},
    {"smiles": "C#CN(Cc1ccc2nc(N)nc(O)c2c1)c1ccc(C(=O)NC(CCC(=O)O)C(=O)NC(CCC(=O)O)C(=O)O)cc1", "note": "(stereo unspecified)", "values": [
      {"measurement": "inhibition at 10 µM", "setting": "[1]", "value": 0, "unit": "%"},
      {"measurement": "IC50", "setting": "[2]", "value": 0.00036, "unit": "µM"},
      {"measurement": "IC50", "setting": "[3]", "value": 0.28, "unit": "µM"},
      {"measurement": "IC50", "setting": "[4]", "value": 0.05, "unit": "nM"},
      {"measurement": "IC50", "setting": "[5]", "value": 0.006, "unit": "µM"},
      {"measurement": "inhibition at 100 µM", "setting": "[6]", "value": 32, "unit": "%"},
      {"measurement": "IC50", "setting": "[7]", "value": 0.125, "unit": "µM"}
    ]},
    {"smiles": "C#CN(Cc1ccc2nc(N)nc(O)c2c1)c1ccc(C(=O)NC(CCC(=O)O)C(=O)NC(CCC(=O)NC(CCC(=O)NC(CCC(=O)NC(CCC(=O)O)C(=O)O)C(=O)O)C(=O)O)C(=O)O)cc1", "note": "(stereo unspecified)", "values": [
      {"measurement": "inhibition at 10 µM", "setting": "[1]", "value": 0, "unit": "%"},
      {"measurement": "IC50", "setting": "[2]", "value": "> 0.08", "unit": "µM"},
      {"measurement": "IC50", "setting": "[3]", "value": "> 20", "unit": "µM"},
      {"measurement": "IC50", "setting": "[4]", "value": 0.35, "unit": "nM"},
      {"measurement": "IC50", "setting": "[5]", "value": 0.002, "unit": "µM"},
      {"measurement": "IC50", "setting": "[8]", "value": 2.9, "unit": "µM"},
      {"measurement": "IC50", "setting": "[9]", "value": 0.013, "unit": "µM"},
      {"measurement": "inhibition at 100 µM", "setting": "[6]", "value": 8, "unit": "%"},
      {"measurement": "IC50", "setting": "[7]", "value": "> 0.8", "unit": "µM"}
    ]},
    {"smiles": "C#CN(Cc1ccc2nc(N)nc(O)c2c1)c1ccc(C(=O)NC(CCC(=O)O)C(=O)NC(CCC(=O)NC(CCC(=O)NC(CCC(=O)O)C(=O)O)C(=O)O)C(=O)O)cc1", "note": "(stereo unspecified)", "values": [
      {"measurement": "inhibition at 10 µM", "setting": "[1]", "value": 0, "unit": "%"},
      {"measurement": "IC50", "setting": "[2]", "value": 0.075, "unit": "µM"},
      {"measurement": "IC50", "setting": "[3]", "value": "> 20", "unit": "µM"},
      {"measurement": "IC50", "setting": "[4]", "value": 0.18, "unit": "nM"},
      {"measurement": "IC50", "setting": "[5]", "value": 0.0014, "unit": "µM"},
      {"measurement": "IC50", "setting": "[8]", "value": 3.7, "unit": "µM"},
      {"measurement": "IC50", "setting": "[9]", "value": 0.014, "unit": "µM"},
      {"measurement": "inhibition at 100 µM", "setting": "[6]", "value": 3, "unit": "%"},
      {"measurement": "IC50", "setting": "[7]", "value": "> 0.8", "unit": "µM"}
    ]}
  ]
}
